Experimental data taken from patent US6610717B2, “Dihydropyridine derivatives” (Ajinomoto Co., Inc., priority 1999, dated 2003).

Experiments:
N-type calcium channel [1] = target: T1, N-type calcium channel (Homo sapiens, UniProt Q00975); test: Antagonistic activity on N-type calcium channel (fluorescence dye method), IMR-32 cells, changed procedure; format: cell-based; conditions: Table 3, 60 mM KCl stimulation, calculated from the inhibition rates, read-out: N-type inhibition pIC50 (converted)
T1 construct: Human neuroblastoma cells IMR-32 were obtained from ATCC; host or cells: IMR-32 human neuroblastoma cells differentiated with dibutyl cAMP and bromodeoxyuridine
T1 sequence (Q00975 whole entry): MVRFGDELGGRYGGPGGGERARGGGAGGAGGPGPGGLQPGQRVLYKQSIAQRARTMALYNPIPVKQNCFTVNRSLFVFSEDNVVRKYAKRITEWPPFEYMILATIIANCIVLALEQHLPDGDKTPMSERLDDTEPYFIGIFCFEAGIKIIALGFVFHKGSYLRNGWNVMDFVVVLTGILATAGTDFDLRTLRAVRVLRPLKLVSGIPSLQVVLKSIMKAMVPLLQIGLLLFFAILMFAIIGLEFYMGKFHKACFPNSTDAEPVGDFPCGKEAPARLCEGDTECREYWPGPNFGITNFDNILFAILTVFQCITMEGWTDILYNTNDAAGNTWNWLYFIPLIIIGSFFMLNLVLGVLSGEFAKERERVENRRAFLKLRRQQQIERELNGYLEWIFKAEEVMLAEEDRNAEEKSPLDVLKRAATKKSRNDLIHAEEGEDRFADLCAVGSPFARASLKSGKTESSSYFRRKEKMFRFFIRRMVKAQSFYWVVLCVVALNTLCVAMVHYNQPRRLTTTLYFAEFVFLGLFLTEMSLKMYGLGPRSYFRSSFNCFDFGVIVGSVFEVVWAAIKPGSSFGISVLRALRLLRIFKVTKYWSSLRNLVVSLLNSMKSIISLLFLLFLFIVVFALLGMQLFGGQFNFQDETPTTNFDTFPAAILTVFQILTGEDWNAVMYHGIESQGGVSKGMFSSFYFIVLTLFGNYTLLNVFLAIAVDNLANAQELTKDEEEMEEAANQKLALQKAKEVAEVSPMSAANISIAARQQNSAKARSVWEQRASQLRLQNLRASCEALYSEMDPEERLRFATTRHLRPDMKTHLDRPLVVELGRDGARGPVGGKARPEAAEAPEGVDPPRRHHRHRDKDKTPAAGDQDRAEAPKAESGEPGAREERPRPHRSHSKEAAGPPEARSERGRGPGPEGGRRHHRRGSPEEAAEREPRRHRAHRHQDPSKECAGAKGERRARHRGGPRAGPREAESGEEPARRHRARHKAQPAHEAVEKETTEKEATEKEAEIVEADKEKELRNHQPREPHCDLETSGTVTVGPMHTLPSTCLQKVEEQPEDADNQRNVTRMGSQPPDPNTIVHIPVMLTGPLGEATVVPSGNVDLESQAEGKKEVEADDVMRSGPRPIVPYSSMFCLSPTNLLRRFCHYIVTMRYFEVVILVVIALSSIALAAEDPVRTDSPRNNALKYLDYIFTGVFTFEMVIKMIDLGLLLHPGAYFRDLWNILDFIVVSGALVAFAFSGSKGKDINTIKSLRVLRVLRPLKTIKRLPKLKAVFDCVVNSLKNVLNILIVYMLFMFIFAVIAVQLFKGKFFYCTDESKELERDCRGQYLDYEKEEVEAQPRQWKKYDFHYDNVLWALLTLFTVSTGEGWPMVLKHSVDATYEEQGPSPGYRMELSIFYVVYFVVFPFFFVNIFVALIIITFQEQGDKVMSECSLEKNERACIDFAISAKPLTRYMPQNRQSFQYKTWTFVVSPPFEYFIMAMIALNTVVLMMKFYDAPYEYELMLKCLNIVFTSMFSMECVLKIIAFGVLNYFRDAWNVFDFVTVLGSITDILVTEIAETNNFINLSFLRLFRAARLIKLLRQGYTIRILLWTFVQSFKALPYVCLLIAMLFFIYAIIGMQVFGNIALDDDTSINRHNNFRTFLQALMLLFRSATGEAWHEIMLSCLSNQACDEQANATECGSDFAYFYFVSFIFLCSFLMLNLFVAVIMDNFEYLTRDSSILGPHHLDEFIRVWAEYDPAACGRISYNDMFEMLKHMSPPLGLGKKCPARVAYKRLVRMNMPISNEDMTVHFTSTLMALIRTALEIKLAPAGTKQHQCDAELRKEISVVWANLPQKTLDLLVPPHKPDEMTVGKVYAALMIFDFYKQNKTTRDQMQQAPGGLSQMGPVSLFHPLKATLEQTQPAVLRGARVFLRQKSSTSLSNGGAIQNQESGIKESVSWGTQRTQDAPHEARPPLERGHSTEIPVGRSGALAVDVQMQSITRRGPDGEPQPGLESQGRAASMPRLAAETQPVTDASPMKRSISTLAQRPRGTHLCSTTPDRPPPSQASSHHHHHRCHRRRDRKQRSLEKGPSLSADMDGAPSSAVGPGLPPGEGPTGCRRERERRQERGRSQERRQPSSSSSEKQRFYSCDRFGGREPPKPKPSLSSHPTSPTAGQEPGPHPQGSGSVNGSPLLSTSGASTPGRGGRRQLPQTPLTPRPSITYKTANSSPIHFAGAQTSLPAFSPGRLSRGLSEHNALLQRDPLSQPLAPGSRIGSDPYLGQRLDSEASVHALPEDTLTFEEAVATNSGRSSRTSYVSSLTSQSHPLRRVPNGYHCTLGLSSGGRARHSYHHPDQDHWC
T1 sequence (P54289 25-956 partner limits assumed): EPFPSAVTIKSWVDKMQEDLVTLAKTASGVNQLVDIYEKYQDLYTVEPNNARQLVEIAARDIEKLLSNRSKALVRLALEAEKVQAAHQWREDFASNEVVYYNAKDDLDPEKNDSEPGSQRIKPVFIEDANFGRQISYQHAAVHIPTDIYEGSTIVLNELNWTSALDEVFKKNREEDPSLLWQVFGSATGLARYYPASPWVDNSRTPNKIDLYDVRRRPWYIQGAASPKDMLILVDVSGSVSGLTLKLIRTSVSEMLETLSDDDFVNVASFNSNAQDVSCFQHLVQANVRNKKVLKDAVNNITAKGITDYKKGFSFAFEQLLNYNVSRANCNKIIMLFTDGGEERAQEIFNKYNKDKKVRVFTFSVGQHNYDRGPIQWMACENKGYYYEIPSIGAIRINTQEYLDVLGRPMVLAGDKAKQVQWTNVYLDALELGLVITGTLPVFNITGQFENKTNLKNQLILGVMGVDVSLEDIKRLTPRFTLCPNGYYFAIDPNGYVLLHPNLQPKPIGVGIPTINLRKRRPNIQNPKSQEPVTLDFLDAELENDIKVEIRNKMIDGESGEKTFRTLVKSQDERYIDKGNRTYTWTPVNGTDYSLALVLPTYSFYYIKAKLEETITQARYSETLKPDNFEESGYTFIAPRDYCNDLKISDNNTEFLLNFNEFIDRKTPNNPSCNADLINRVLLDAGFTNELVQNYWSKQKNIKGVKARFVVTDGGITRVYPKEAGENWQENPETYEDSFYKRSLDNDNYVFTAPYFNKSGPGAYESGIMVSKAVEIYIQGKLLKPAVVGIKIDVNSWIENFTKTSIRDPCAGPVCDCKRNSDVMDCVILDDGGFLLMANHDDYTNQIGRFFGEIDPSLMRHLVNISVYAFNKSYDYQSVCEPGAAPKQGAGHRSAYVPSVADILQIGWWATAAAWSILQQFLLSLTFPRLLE
T1 sequence (P54289 957-1103 partner limits assumed): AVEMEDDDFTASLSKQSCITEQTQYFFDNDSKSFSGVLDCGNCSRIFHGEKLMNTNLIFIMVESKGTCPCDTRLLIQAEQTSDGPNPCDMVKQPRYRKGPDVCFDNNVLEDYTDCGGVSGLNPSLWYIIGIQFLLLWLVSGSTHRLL
T1 sequence (P54284 whole entry partner): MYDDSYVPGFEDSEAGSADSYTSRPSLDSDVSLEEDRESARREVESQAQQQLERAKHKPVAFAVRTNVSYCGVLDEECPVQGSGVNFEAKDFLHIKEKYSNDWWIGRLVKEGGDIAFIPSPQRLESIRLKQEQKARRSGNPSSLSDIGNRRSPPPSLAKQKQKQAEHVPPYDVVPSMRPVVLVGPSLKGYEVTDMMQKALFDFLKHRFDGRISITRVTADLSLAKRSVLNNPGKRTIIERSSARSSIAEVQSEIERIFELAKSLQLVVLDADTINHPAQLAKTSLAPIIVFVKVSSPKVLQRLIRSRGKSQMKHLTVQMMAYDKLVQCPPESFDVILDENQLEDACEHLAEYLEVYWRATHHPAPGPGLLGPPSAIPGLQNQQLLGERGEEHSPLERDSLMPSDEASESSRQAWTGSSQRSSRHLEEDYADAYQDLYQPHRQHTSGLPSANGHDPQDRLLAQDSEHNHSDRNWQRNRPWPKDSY
Method: (§1) Human neuroblastoma cells IMR-32 were obtained from ATCC (American Type Culture Collection). The medium used was a Phenol Red-free Eagle minimum essential medium (GIBCO) containing earle's salts supplement, 2 mM of L-glutamine (GIBCO), 1 mM of sodium pyruvate (pH 6.5) (GIBCO), antibiotic/antimicotic mixture (GIBCO) and 10% fetal calf serum (Cell Culture Technologies). 3 ml of 1×10^5/ml IMR-32 cells were spread on a glass dish (Iwaki Glass Co., Ltd.) having a diameter of 35 mm which was treated with poly-D-lysin (SIGMA) and collagen (COLLAGEN VITROGEN 100, Collagen Colo.). After the culture for 2 days, 1 mM (final concentration) of dibutyl cAMP and 2.5 μM of bromodeoxyuridine (SIGMA) were added. After the culture for additional 10 to 14 days, the cells were subjected to the activity determination. The medium for IMR-32 cells thus prepared was replaced with 1 ml of Phenol Red-free Eagle minimum essential medium (GIBCO) containing 1 ml of 10 μM fura-2/AM (Dojin Kagaku, Co.) and earle's salts supplement, and the incubation was conducted at 25° C. for 1 hour.
Then the medium was replaced with Phenol Red-free Eagle minimum essential medium (GIBCO) containing earle's salts supplement, from which fura-2/AM had been removed. After the incubation at 37° C. for 1 hour, the medium was replaced with a recording medium (20 mM of HEPES-KOH, 115 mM of NaCl, 5.4 mM of KCl, 0.8 mM of MgCl2, 1.8 mM of CaCl2 and 13.8 mM of D-glucose). Antagonistic activity on N-type calcium channel was determined and analyzed by using a fluorescence microscope (Nikon Corporation) and an image analysis device ARGUS 50 (Hamamatsu Photonics). In particular, a recording medium (20 mM of HEPES-KOH, 115 mM of NaCl, 5.4 mM of KCl, 0.8 mM of MgCl2, 1.8 mM of CaCl2 and 13.8 mM of D-glucose) containing 1 μM of Nifedipine was given to the cells by reflux by a Y-tube method. Then a stimulating agent containing 60 mM of potassium chloride was rapidly given by the Y-tube method. Thereafter stimulating agents containing 60 mM of potassium chloride and 0.1, 1 or 10 μM of test compound were successively rapidly given by the Y-tube method to determine the antagonistic activity on the channel. Finally, a stimulating agent containing 60 mM of potassium chloride and 1 μM of omega conotoxin GVIA (Peptide institute, inc.) was rapidly given by the Y-tube method to realize a condition of 100% inhibition of N-type calcium channel.
The same procedure as that of the above-described tests was repeated except for the following changes: 60 mM of potassium chloride-containing stimulating agent was rapidly given by the Y-tube method while the calcium concentration change in the cells was examined in terms of N-type calcium channel activity. […] A change in calcium concentration in the cells was determined.

N-type calcium channel [2] = target: T1, N-type calcium channel; test: Antagonistic activity on N-type calcium channel (fluorescence dye method), IMR-32 cells, in presence of 1 μM Nifedipine; format: cell-based; conditions: Table 2, 60 mM KCl stimulation, fura-2, read-out: N-type inhibition pIC50 (converted)
Method: as §1, with “The medium for IMR-32 cells thus prepared was replaced with 1 ml of Phenol Red-free Eagle minimum essential medium (GIBCO) containing 1 ml of 10 μM fura-2/AM (Dojin Kagaku, Co.) and earle's salts supplement, and the incubation was conducted at 25° C. for 1 hour.” left out
Then the medium was replaced with Phenol Red-free Eagle minimum essential medium (GIBCO) containing earle's salts supplement, from which fura-2/AM had been removed. […] Antagonistic activity on N-type calcium channel was determined and analyzed by using a fluorescence microscope (Nikon Corporation) and an image analysis device ARGUS 50 (Hamamatsu Photonics). […]

Row | IC50 (N-type calcium channel [1]) [nM] | IC50 (N-type calcium channel [2]) [nM] | Structure (SMILES)
1 | 2510 | 2000 | CC1=C(C(=O)O)C(c2cccc(Cl)c2)C(C(=O)NC/C=C/c2ccccc2)=C(COCCc2ccccc2)N1 (stereo not drawn) [Example 3, 4-(3-chlorophenyl)-2-methyl-6-(2-phenylethoxymethyl)-5-(3-phenyl-2-propene-1-ylcarbamoyl)-1,4-dihydro-pyridine-3-carboxylic acid]
2 | 794 | 398 | CC1=C(C(=O)O)C(c2cccc(Cl)c2)C(C(=O)NC/C=C/c2ccccc2)=C(COCCC2CCCCC2)N1 (stereo not drawn) [Example 4, 4-(3-chlorophenyl)-6-(2-cyclohexylethoxymethyl)-2-methyl-5-(3-phenyl-2-propene-1-ylcarbamoyl)-1,4-dihydropyridine-3-carboxylic acid]
3 | 2510 |  | CC1=C(C(=O)O)C(c2cccc(Cl)c2)C(C(=O)NCCC(c2ccccc2)c2ccccc2)=C(COCCc2ccccn2)N1 (stereo not drawn) [Example 6, 4-(3-chlorophenyl)-5-(3,3-diphenylpropylcarbamoyl)-2-methyl-6-(2-(pyridine-2-yl)ethoxy)methyl-1,4-dihydropyridine-3-carboxylic acid]
4 | 2000 |  | COCC1=C(C(=O)OC)C(c2cccc(Cl)c2)C(C(=O)NCCC(c2ccccc2)c2ccccc2)=C(COCCN)N1 (stereo not drawn) [Example 11, Methyl 6-(2-aminoethoxy)methyl-4-(3-chlorophenyl)-5-(3,3-diphenylpropylcarbamoyl)-2-methoxymethyl-1,4-dihydropyridine-3-carboxylate]
